Data set [1] concerns the target T1, (human) A2A adenosine receptors (Homo sapiens, UniProt P29274).
T1 construct: purchased PerkinElmer Research Products (Boston, Mass.); host or cells: HEK-293
As to the kind of experiment: Radioligand binding test ([3H]CGS21680 displacement, hA2A HEK-293 cell membranes). To be noted: for Ki: read-out: Ki (inhibition constant). As to the method:
Cell membranes stably transfected with (human) A2A adenosine receptors were prepared in HEK-293 cells. The cell membranes were obtained from PerkinElmer Research Products (Boston, Mass.).
The A2A adenosine receptors used were all expressed in the cell membranes. […] (final 25 nM) was added to the diluted cell membrane, and mixed well. 50 μL of the prepared dilution solution of cell membrane was transferred to the 384-well Opti-plate containing compound and incubated at 25° C. for 90 minutes. 100 μL of 0.5% Polyethyleneimine solution (PEI) was added to […]-96 GF/B filter plate, and soaked for 90 minutes at 4° C., then 500 μL of washing buffer/well (50 mM Tris-HCl pH 7.4, 154 mM NaCl) was transferred with Cell Harvester to wash the […]-96 GF/B filter plate twice. The mixed system in the Opti-plate was transferred to the washed […]-96 GF/B filter plate, 500 μL of washing buffer/well (50 mM Tris-HCl pH 7.4, 154 mM NaCl) was used to wash the […]-96 GF/B filter plate 9 times. Incubation was performed in 37° C. incubator for 3 minutes. 40 μL of ULTIMA GOLD scintillation solution (Perkin Elmer, Cat #77-16061) was added to each well, CPM (count per minute) value was read by a MicroBeta liquid scintillation counter (PerkinElmer).

Setting [2] is: calculated from IC50 by Cheng and Prusoff equation, [S] 25 nM, Km […] nM.

Where two headings read alike, the source gives them in different places.

T1 sequence (P29274 whole entry): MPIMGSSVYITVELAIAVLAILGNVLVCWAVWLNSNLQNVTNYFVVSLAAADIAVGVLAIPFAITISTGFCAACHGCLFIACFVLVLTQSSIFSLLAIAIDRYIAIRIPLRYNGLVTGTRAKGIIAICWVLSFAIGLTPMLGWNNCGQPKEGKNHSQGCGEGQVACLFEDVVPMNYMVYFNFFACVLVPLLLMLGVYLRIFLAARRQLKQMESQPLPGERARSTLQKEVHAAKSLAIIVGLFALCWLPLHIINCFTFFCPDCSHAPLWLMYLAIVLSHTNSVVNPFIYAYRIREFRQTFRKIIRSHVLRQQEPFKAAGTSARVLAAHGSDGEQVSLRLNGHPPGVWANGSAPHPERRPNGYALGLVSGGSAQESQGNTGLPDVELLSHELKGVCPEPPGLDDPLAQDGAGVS

In turn, `CC(=O)Nc1ccc(/C=N/Nc2nc(N)c3ncn([C@@H]4O[C@H](CO)[C@@H](O)[C@H]4O)c3n2)cc1` [Compound 1, N-{4-{(E)-{2-{6-amino-9-[(2R,3R,4S,5R)-3,4-dihydroxy-5-(hydroxymethyl)tetrahydrofuran-2-yl]-9H-purin-2-yl}hydrazono}methyl}phenyl}acetamide] displayed a melting point of 126 °C. Besides, the IC50 in data set [1] amounted to 2840 nM. For the same molecule, in data set [1] (setting [2]), the Ki is 1330 nM.

Molecule `Nc1nc(N/N=C/c2ccc(C(F)(F)F)cc2C(F)(F)F)nc2c1ncn2[C@@H]1O[C@H](CO)[C@@H](O)[C@H]1O` [Compound 3, (2R,3R,4S,5R)-2-{6-amino-2-{2-[(E)-2,4-bis(trifluoromethyl)benzylidene]hydrazino}-9H-purin-9-yl}-5-(hydroxymethyl)tetrahydrofuran-3,4-diol] displayed a melting point of 239 °C. This molecule also returned an IC50 in data set [1] greater than 10000 nM.

Molecule `Nc1nc(N/N=C/c2ccc(N(c3ccccc3)c3ccccc3)cc2)nc2c1ncn2[C@@H]1O[C@H](CO)[C@@H](O)[C@H]1O` [Compound 4, (2R,3R,4S,5R)-2-{6-amino-2-{2-[(E)-4-(diphenylamino)benzylidene]hydrazino}-9H-purin-9-yl}-5-(hydroxymethyl)tetrahydrofuran-3,4-diol] had a melting point of 184 °C. The molecule further returned an IC50 in data set [1] of 142 nM. Also, in data set [1] (setting [2]), the Ki was 66.7 nM.

As to `Nc1nc(N/N=C/c2cccc(OCc3ccccc3)c2)nc2c1ncn2[C@@H]1O[C@H](CO)[C@@H](O)[C@H]1O` [Compound 6, (2R,3R,4S,5R)-2-{6-amino-2-{2-[(E)-3-(benzyloxy)benzylidene] hydrazino}-9H-purin-9-yl}-5-(hydroxymethyl)tetrahydrofuran-3,4-diol], the melting point was determined as 148 °C. This molecule also had an IC50 in data set [1] of 369 nM. In data set [1] (setting [2]), the Ki was 173 nM.

In the case of `Nc1nc(N/N=C/c2ccc(Cl)c(C(F)(F)F)c2)nc2c1ncn2[C@@H]1O[C@H](CO)[C@@H](O)[C@H]1O` [Compound 7, (2R,3R,4S,5R)-2-{6-amino-2-{2-[(E)-4-chloro-3-(trifluoromethyl)benzylidene]hydrazino}-9H-purin-9-yl}-5-(hydroxymethyl)tetrahydrofuran-3,4-diol], the melting point came out at 242 °C. In data set [1], the IC50 was determined as 1710 nM. The Ki in data set [1] (setting [2]) is 801 nM.

`Nc1nc(N/N=C/c2ccc(-c3ccccn3)cc2)nc2c1ncn2[C@@H]1O[C@H](CO)[C@@H](O)[C@H]1O` [Compound 8, (2R,3R,4S,5R)-2-{6-amino-2-{2-[(E)-4-(pyridin-2-yl)benzylidene] hydrazino}-9H-purin-9-yl}-5-(hydroxymethyl)tetrahydrofuran-3,4-diol] showed a melting point of 164 °C. The molecule also registered an IC50 in data set [1] of 445 nM. Also, in data set [1] (setting [2]), the Ki was 208 nM.

With `Nc1nc(N/N=C/c2ccc(N3CCCC3)cc2)nc2c1ncn2[C@@H]1O[C@H](CO)[C@@H](O)[C@H]1O` [Compound 10, (2R,3R,4S,5R)-2-{6-amino-2-{2-[(E)-4-(pyrrolidin-1-yl)benzylidene]hydrazino}-9H-purin-9-yl}-5-(hydroxymethyl)tetrahydrofuran-3,4-diol], the melting point was found to be 174 °C. In addition, the IC50 in data set [1] is greater than 10000 nM.

Turning to `Nc1nc(N/N=C/c2ccc(C(F)(F)F)cc2)nc2c1ncn2[C@@H]1O[C@H](CO)[C@@H](O)[C@H]1O` [Compound 11, (2R,3R,4S,5R)-2-{6-amino-2-{2-[(E)-4-(trifluoromethyl)benzylidene]hydrazino}-9H-purin-9-yl)-5-(hydroxymethyl)tetrahydrofuran-3,4-diol], the melting point was 260 °C. Further, the IC50 in data set [1] was determined as 131 nM. For the same molecule, the Ki in data set [1] (setting [2]) is 61.3 nM.

`Nc1nc(N/N=C/c2ccc(-n3ccnc3)cc2)nc2c1ncn2[C@@H]1O[C@H](CO)[C@@H](O)[C@H]1O` [Compound 12, (2R,3R,4S,5R)-2-{2-{2-[(E)-4-(1H-imidazol-1-yl)benzylidene]hydrazino}-6-amino-9H-purin-9-yl}-5-(hydroxymethyl)tetrahydrofuran-3,4-diol] showed a melting point of 276 °C. In data set [1], this molecule returned an IC50 of 462 nM. The Ki in data set [1] (setting [2]) was 216 nM.

As to `CCCOc1ccc(/C=N/Nc2nc(N)c3ncn([C@@H]4O[C@H](CO)C(O)C4O)c3n2)cc1` (stereo partly drawn) [Compound 13, (2R,3R,45,5R)-2-{6-amino-2-{2-[(E)-4-propoxybenzylidene]hydrazino}-9H-purine-9-yl}-5-(hydroxymethyl)tetrahydrofuran-3,4-diol], the melting point was found to be 218 °C. Further, in data set [1], the IC50 is 479 nM and the Ki amounted to 224 nM.

Turning to `N#Cc1ccccc1/C=N/Nc1nc(N)c2ncn([C@@H]3O[C@H](CO)C(O)C3O)c2n1` (stereo partly shown) [Compound 14], the melting point stood at 260 °C.

Molecule `CCOc1cc(/C=N/Nc2nc(N)c3ncn([C@@H]4O[C@H](CO)[C@@H](O)[C@H]4O)c3n2)ccc1O` [Compound 16, (2R,3R,4S,5R)-2-{6-amino-2-{2-[(E)-3-ethoxy-4-hydroxybenzylidene]hydrazino}-9H-purin-9-yl}-5-(hydroxymethyl)tetrahydrofuran-3,4-diol] came in with a melting point of 198 °C. The IC50 in data set [1] was 3460 nM. Further, the Ki in data set [1] (setting [2]) is 1620 nM.

For the molecule `Nc1nc(N/N=C/c2ccc(N3CCOCC3)cc2)nc2c1ncn2[C@@H]1O[C@H](CO)[C@@H](O)[C@H]1O` [Compound 17, (2R,3R,4S,5R)-2-{6-amino-2-{2-[(E)-4-morpholinobenzylidene]hydrazino}-9H-purin-9-yl}-5-(hydroxymethyl)tetrahydrofuran-3,4-diol], the melting point turned out to be 186 °C. This molecule showed an IC50 in data set [1] of 1710 nM. Besides, in data set [1] (setting [2]), the Ki was 800 nM.

As for `COc1cc(/C=N/Nc2nc(N)c3ncn([C@@H]4O[C@H](CO)[C@@H](O)[C@H]4O)c3n2)cc(OC)c1OC` [Compound 18, (2R,3R,4S,5R)-2-{6-amino-2-{2-[(E)-3,4,5-trimethoxybenzylidene]hydrazino}-9H-purin-9-yl}-5-(hydroxymethyl)tetrahydrofuran-3,4-diol], the melting point is 246 °C. This molecule came in with an IC50 in data set [1] greater than 10000 nM.

`COc1cc(/C=N/Nc2nc(N)c3ncn([C@@H]4O[C@H](CO)[C@@H](O)[C@H]4O)c3n2)ccc1OCc1ccccc1` [Compound 19, (2R,3R,4S,5R)-2-{6-amino-2-{2-[(E)-4-(benzyloxy)-3-methoxybenzylidene]hydrazino}-9H-purin-9-yl}-5-(hydroxymethyl)tetrahydrofuran-3,4-diol] registered a melting point of 146 °C. For the same molecule, the IC50 in data set [1] turned out to be 216 nM. Besides, in data set [1] (setting [2]), the Ki is 101 nM.

By melting point is commonly meant the temperature, or range, at which the solid turns liquid. Usually IC50 stands for the concentration that gives 50% inhibition. A low value points to greater potency. A word on the Ki: it is the equilibrium dissociation constant of an inhibitor or competing ligand from its target.

The record behind these values is patent publication US20220378816A1, “2-BENZYLIDENE HYDRAZINOADENOSINE COMPOUNDS HAVING A2A ADENOSINE RECEPTOR AGONISTIC ACTIVITY” (ACADEMY OF MILITARY MEDICAL SCIENCES, priority 2019, published 2022).
